Patent publication US20090214435A1, “Recombinant vector expressing MDR1 shRNA and thymidine kinase and use thereof” (Kyungpook National University Industry-Academic Cooperation …, priority 2007, published 2009)

Experiments:
HCT/Mock cells [1] = assay: Clonogenic assay for anticancer drug sensitivity, control cells; format: cell-based, human; conditions: 10 days
Method: (§1) First, MTKG cells and HCT/Mock cells as a control group were inoculated at a cell density of 10^3 cells/well in a 6-well plate containing RPMI 1640 medium, followed by addition of an anticancer drug (doxorubicin or paclitaxel) at different concentrations (0, 1, 5, 10, 50, 100, 500, and 1000 nM) and incubation for 10 days. Thereafter, the culture medium was eliminated, and the cells were washed three times with a phosphate buffer and stained with a dye (Diff Quick staining kit). Colony formation was confirmed and colony count was made.

MTKG cells [2] = assay: Clonogenic assay for anticancer drug sensitivity, transfected cells; format: cell-based; conditions: Homo sapiens, 240 h, 10 days, read-out: inhibition of cell proliferation
Method: as §1

MTKG cells [3] = assay: Intracellular accumulation of [3H]-paclitaxel; format: cell-based, human; conditions: 50 nM [3H]-paclitaxel, 2 hours at 37° C., MTKG cells compared to HCT-15 and HCT/Mock cells, FIG. 4A
Method: A degree of intracellular drug accumulation by MDR1 shRNA was investigated. MTKG cells constructed in Section 1-3 of Example 1, and HCT-15 and HCT/Mock cells as a control group were cultured in 6-well plates containing RPMI 1640 medium for 48 hours, to which 50 nM of an isotope-labeled anticancer drug ([^3H]-paclitaxel, Moravek, USA) was then added, followed by incubation at 37° C. for 2 hours. Then, the plate was washed three times with a phosphate buffer, and a cell lysis buffer (50 mM Tris-HCl, 150 mM NaCl, and 1% SDS) was added thereto to lyse the cells. For each cell lysate sample, an isotope activity was measured using a beta-counter.

MTKG cells [4] = assay: Clonogenic assay, co-administration of ganciclovir and doxorubicin; format: cell-based, human; conditions: 10 days
Method: In order to confirm effects of co-administration of an anti-viral drug ganciclovir and an anticancer drug (doxorubicin) on cancer cells, clonogenic assay was carried out. For this purpose, first, MTKG cells were inoculated and cultured in a 100 mm plate containing RPMI 1640 medium, and the cells were then washed three times with a fresh medium. The cells were desorbed from the plate using trypsin-EDTA, and 1×10^3 cells were counted and inoculated into a 6-well plate with addition of ganciclovir (0.1 μCi) and doxorubicin at two different concentrations (10 and 25 nM), followed by incubation. 10 days after incubation, the culture medium was eliminated, and the cells were washed three times with a phosphate buffer and stained with a dye (Diff Quick staining kit). Colony formation was confirmed and colony count was made.

MTKG cells [5] = assay: Cell proliferation assay (CellTiter 96 Aqueous One Solution) for ganciclovir sensitivity; format: cell-based, human; conditions: ganciclovir concentration of 0.1 μM or higher, 4 days, FIG. 5B
Text: (§2) Whether increased intracellular accumulation capacity of ganciclovir confirmed in Section 5-1 leads to the enhanced drug sensitivity of MTKG cells to ganciclovir was examined by a cell proliferation assay using CellTiter 96 Aqueous One Solution cell proliferation assay kit (Promega, USA), First, MTKG cells and HCT/Mock cells as a control group were inoculated at a cell density of 10^2 cells/well in a 96-well plate containing RPMI 1640 medium, followed by addition of ganciclovir at different concentrations (0, 0.1, 1, and 10 μM) and incubation for 4 days. Thereafter, 20 μl of detection solution were added to each well. The cells were incubated for 90 min at 37° C. and then measured absorbance at 490 nm using miroplate reader (BioRad, USA). From the experimental results shown in FIG. 5B, it was confirmed that proliferation of HCT-15 and HCT/Mock cells as a control group was not affected by administration of ganciclovir, whereas proliferation of the MTKG cells was affected even at a ganciclovir concentration of 0.1 μM or higher, thus representing increased drug sensitivity of the cell.

HCT/Mock cells [6] = assay: as above; format: cell-based, human; conditions: ganciclovir 0.1, 1, 10 μM, 4 days, FIG. 5B
Text: as §2

HCT-15 cells = assay: as above; format: cell-based, human; conditions: ganciclovir 0.1, 1, 10 μM, 4 days, FIG. 5B
Text: as §2

MTKG cells [7] = assay: Intracellular accumulation of [H3]-ganciclovir; format: cell-based, human; conditions: 0.76 μCi/mL [H3]-ganciclovir, 45 min at 37° C., MTKG cells compared to HCT-15 and HCT/Mock cells, FIG. 5A
Method: A degree of intracellular ganciclovir accumulation by the TK-GFP gene was investigated as follows. MTKG cells constructed in Section 1-3 of Example 1, and HCT-15 and HCT/Mock cells as a control group were cultured in 6-well plates containing RPMI 1640 medium for 48 hours, to which 0.76 μCi/mL of an isotope-labeled ganciclovir ([H^3]-Ganciclovir, Moravek, USA) was then added, followed by incubation at 37° C. for 45 min. Then, the plate was washed three times with a phosphate buffer and a cell lysis buffer (50 mM Tris-HCl, 150 mM NaCl, and 1% SDS) was added thereto to lyse the cells. For each cell lysate sample, an isotope activity was measured using a beta-counter.

P-glycoprotein = assay: Western blot analysis of P-glycoprotein expression in transfected cells; format: cell-based, human; conditions: MTKG cells vs control cell line, FIG. 2B
Method: In order to investigate whether intracellular incorporation of MDR1 shRNA inhibits expression of P-glycoprotein which is an expression product of the MDR1 gene, Western blot analysis was carried out for proteins isolated from HCT-15, HCT/Mock, and MTKG cells, respectively. The procedure will be briefly described as follows. HCT-15, HCT/Mock, and MTKG cells were lysed in a cell lysis buffer (containing 50 mM Tris-HCl, 150 mM NaCl, 1% Triton X-100, 1 mM CaCl2, 1 mM MgC2 and protease inhibitor cocktail (Roche, USA), pH 7.4). 30 μg of each protein in the cell lysates was subjected to electrophoresis on polyacrylamide gel containing 7% SDS, and the developed protein gel was transferred to a nitrocellulose membrane. Thereafter, anti-P-glycoprotein antibodies (clone C219, Calbiochem, USA) were diluted in a TBS-T solution (50 mM Tris-HCl, pH 7.6, 150 mM NaCl, 0.1% Tween 20) and were allowed to react and bind with a nitrocellulose membrane for more than 16 hours under refrigeration conditions. After the reaction was complete, the membrane was washed three times with a TBS-T solution, followed by binding reaction with horseradish peroxidase (HRP)-conjugated anti-mouse IgG antibodies (Santa Cruz, USA) for 1 hour at room temperature. […]

MDR1 mRNA = assay: RT-PCR analysis of MDR1 mRNA expression in transfected cells; format: cell-based, human; conditions: MTKG cells vs HCT-15 and HCT/Mock, FIG. 2A
Method: Expression of MDR1 shRNA in MTKG cells of Section 1-3 of Example 1 was examined by RT-PCR For this purpose, total RNA was isolated from HCT-15, HCT/Mock, and MTKG cells, using Trizol reagent (Invitrogen) according to the manufacturer's instructions. Then, cDNA was prepared using 2 μg of the isolated total RNA as a template, and Oligo(dT)15 primer (Bionics, Seoul, Korea) and reverse transcriptase (Promega). PCR amplification for MDR1 mRNA was carried out using the prepared cDNA as a template and a pair of primers (SEQ ID NOS: 12 and 13). PCR was carried out as follows: initial denaturation of template cDNA at 94° C. for 2 min, followed by 30 cycles of denaturation at 94° C. for 30 seconds, annealing at 60° C. for 30 seconds and extension at 72° C. for 1 min.

Molecule: CC(=O)O[C@H]1C(=O)[C@@]2(C)[C@H]([C@H](OC(=O)c3ccccc3)[C@]3(O)C[C@H](OC(=O)[C@H](O)[C@@H](NC(=O)c4ccccc4)c4ccccc4)C(C)=C1C3(C)C)[C@]1(OC(C)=O)CO[C@@H]1C[C@@H]2O [paclitaxel]
- inhibition at 0.1 µM (HCT/Mock cells [1]; Homo sapiens, 240 h, paclitaxel concentration of 100 nM, FIG. 4C, read-out: inhibition of cell proliferation): ≥ 70%
- inhibition at 0.01 µM (MTKG cells [2]; paclitaxel concentration of 10 nM, FIG. 4C): ≥ 70%
- accumulation of paclitaxel (MTKG cells [3]): higher accumulation

Molecule: COc1cccc2c1C(=O)c1c(O)c3c(c(O)c1C2=O)C[C@@](O)(C(=O)CO)C[C@@H]3O[C@H]1C[C@H](N)[C@H](O)[C@H](C)O1 [doxorubicin]
- inhibition of cell proliferation (HCT/Mock cells [1]; doxorubicin concentration of 500 nM or higher, FIG. 4B): ≥ 90%
- inhibition at 0.05 µM (MTKG cells [2]; doxorubicin concentration of 50 nM, FIG. 4B): ≥ 90%
- cell survival rate (MTKG cells [4]; 10 nM doxorubicin alone): 78.8±7.8%
- cell survival rate (MTKG cells [4]; 25 nM doxorubicin alone): 37.7±3.3%

Molecule: Nc1nc(O)c2ncn(COC(CO)CO)c2n1 [ganciclovir]
- proliferation of cells on administration of ganciclovir (MTKG cells [5]): affected
- proliferation of cells on administration of ganciclovir (HCT/Mock cells [6]): not affected
- proliferation of cells on administration of ganciclovir (HCT-15 cells): not affected
- accumulation of ganciclovir (MTKG cells [7]): higher accumulation
- cell survival rate (MTKG cells [4]; 0.1 μCi ganciclovir alone): 61.1±4.1%

B1: MDR1 shRNA: shRNA with sense and antisense sequences for target SEQ ID NO: 6 (5′-GGCCUAAUGCCGAACACAU-3′), CGAA loop, expressed from U6 promoter (nucleic acid)
sense: GATCCCGGCCTAATGCCGAACACATCGAAATGTGTTCGGCATTAGGCCTTTTTTCCAAC
antisense: TCGAGTTGGAAAAAAGGCCTAATGCCGAACACATTTCGATGTGTTCGGCATTAGGCCGG
modifications: the letters are possibly those of the target site
- P-glycoprotein expression (P-glycoprotein): inhibition of P-glycoprotein expression
- level of MDR1 mRNA (MDR1 mRNA): decreased level of MDR1 mRNA
